{"source": "patent US11306306B1", "about": "“Selective degradation of proteins” (SyntheX, Inc., priority 2019, dated 2022)", "key": {"[1]": {"system": "TIR1 bridged to plant protein (AXR) fused to a TetR DBD and an AD", "assay": "Positive readout high throughput screen for bridging agents, death agent, 96 well plate growth (OD600), E3 ligase TIR1", "type": "cell-based, Saccharomyces cerevisiae", "settings": "10 uM, quadruplicate wells, 30° C., final timepoint 48 hrs", "experimental": "In another example, cells expressing a heterologous E3 ligase, in this case TIR1, were assayed for survival to discover bridging agents that can bridge TIR1 to the bait and lead to degradation, thereby enabling cell growth (schematic shown in FIG. 10A). The target was a plant protein (AXR) that is ubiquitinated and degraded in response to Indol Acetic Acid fused to a TetR DBD and an AD. Cells containing the E3 ligases and the death agent were mated to cells containing the target. The mated cells were then aliquoted into a 96 well plate at a starting OD600=0.05. In this example, various compounds were used in quadruplicate wells at a concentration of 10 uM, and plated cells starting at OD600=0.05 (with the border wells on each side kept as negative controls). Plates were incubated at 30° C. with shaking and continuously monitored for growth using OD600 in a Cytation 1 instrument."}, "[2]": {"system": "COI1b bridged to plant protein (AXR) fused to a TetR DBD and an AD", "assay": "Positive readout screen for bridging agents, death agent, 96 well plate growth (OD600), E3 ligase COI1b", "type": "cell-based, S. cerevisiae", "settings": "duplicate wells, 30° C., final timepoint 84 hrs", "experimental": "In yet another example, cells expressing a heterologous E3 ligase, in this case COI1b, were assayed for survival to discover bridging agents that can bridge COI1b to the bait and lead to degradation, thereby enabling cell growth (as shown in FIG. 11A). S. cerevisiae cells were modified to minimize drug efflux by deletion of drug efflux pumps and transcription factors encoding for their expression as previously described (Chinen, 2011). The target used was a plant protein (AXR) that is ubiquitinated and degraded in response to Jasmonate-isoleucine fused to a TetR DBD and an AD. Cells containing the E3 ligases and the death agents were mated to cells containing the target. The mated cells were then aliquoted into a 96 well plate at a starting OD600=0.05. Various compounds were tested in duplicate wells at a concentration gradient down from 100 uM. […] Plates were incubated at 30° C. with shaking and continuously monitored for growth using OD600 in a Cytation 1 instrument."}, "[3]": {"system": "aggressive adherent cancer cell lines (e.g. HeLa, A431, T47D, MCF7, MDA-MB-231)", "settings": "several aggressive adherent cancer cell lines (e.g. HeLa, A431, T47D, MCF7, MDA-MB-231); cited from earlier work"}}}
{"molecule": "O=C(O)Cc1ccccc1", "note": "[PAA]", "values": [{"measurement": "cell growth (OD600): bridging TIR1 to the bait, leading to degradation", "setting": "[1]", "result": "functional bridging agents"}]}
{"molecule": "CC[C@H]1C=C(C(=O)N[C@@]2(C(=O)O)C[C@@H]2CC)[C@H]2CCC(=O)[C@H]2C1", "note": "[coronatine]", "values": [{"measurement": "cell growth (OD600): bridging COI1b to the bait, leading to degradation", "setting": "[2]; 50 uM (wells G8/9)", "result": "exhibited cell growth"}, {"measurement": "cell growth (OD600): bridging COI1b to the bait, leading to degradation", "setting": "[2]; 75 uM (wells F8/9)", "result": "exhibited cell growth"}, {"measurement": "cell growth (OD600): bridging COI1b to the bait, leading to degradation", "setting": "[2]; 100 uM (wells E8/9)", "result": "exhibited cell growth"}]}
{"molecule": "Gymnopeptide A [GymA]", "values": [{"measurement": "IC50 values", "setting": "[3]", "result": "low nanomolar range"}]}
{"molecule": "Gymnopeptide B [GymB]", "values": [{"measurement": "IC50 values", "setting": "[3]", "result": "low nanomolar range"}]}
